Results reported in ChEMBL document CHEMBL1201862, “PubChem BioAssay data set” (2004).
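Compound exposure: 48 hours, 5 concentrations, 96-well plates. Abbreviation: GI50, concentration required for 50% inhibition of growth.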 The source made the active and inactive calls. Cut-off read from the data, not from the text of the source: active = GI50 up to about 1.1 µM and inactive = higher.

Tests used:
Experiment in all cases: inhibition of tumour cell growth, NCI panel, 48 h
BT-549 = tested on: BT-549
DMS-114 = tested on: DMS-114
HOP-92 = tested on: HOP-92
SR = tested on: SR
SW-620 = tested on: SW-620
U-251 = tested on: U-251
OVCAR-5 = tested on: OVCAR-5
KM-20L2 = tested on: KM-20L2
A549 = tested on: A549
SK-MEL-2 = tested on: SK-MEL-2
MCF7 = tested on: MCF7
MDA-N = tested on: MDA-N
SK-OV-3 = tested on: SK-OV-3
HT-29 = tested on: HT-29
NCI-H460 = tested on: NCI-H460
DU-145 = tested on: DU-145
UACC-257 = tested on: UACC-257
DLD-1 = tested on: DLD-1
CCRF-CEM = tested on: CCRF-CEM
HCC 2998 = tested on: HCC 2998
OVCAR-3 = tested on: OVCAR-3
Malme-3M = tested on: Malme-3M
SNB-75 = tested on: SNB-75
HCT-15 = tested on: HCT-15
IGROV-1 = tested on: IGROV-1
SK-MEL-5 = tested on: SK-MEL-5
EKVX = tested on: EKVX
LXFL 529 = tested on: LXFL 529
OVCAR-8 = tested on: OVCAR-8
COLO 205 = tested on: COLO 205
NCI/ADR-RES = tested on: NCI/ADR-RES
HOP-62 = tested on: HOP-62
PC-3 = tested on: PC-3
786-0 = tested on: 786-0
SF-539 = tested on: SF-539
UACC-62 = tested on: UACC-62
A498 = tested on: A498
CAKI-1 = tested on: CAKI-1
M19-MEL = tested on: M19-MEL
NCI-H226 = tested on: NCI-H226
HL-60 = tested on: HL-60
SN12C = tested on: SN12C
MOLT-4 = tested on: MOLT-4
LOX IMVI = tested on: LOX IMVI
ACHN = tested on: ACHN
SNB-78 = tested on: SNB-78
T47D = tested on: T47D
K562 = tested on: K562
RXF 393 = tested on: RXF 393
DMS-273 = tested on: DMS-273
XF498 = tested on: XF498
OVCAR-4 = tested on: OVCAR-4
KM12 = tested on: KM12
NCI-H23 = tested on: NCI-H23
HOP-18 = tested on: HOP-18
SF-295 = tested on: SF-295
TK-10 = tested on: TK-10
SF-268 = tested on: SF-268
UO-31 = tested on: UO-31
M14 = tested on: M14
NCI-H522 = tested on: NCI-H522
HCT-116 = tested on: HCT-116
RPMI-8226 = tested on: RPMI-8226
Hs-578T = tested on: Hs-578T
SNB-19 = tested on: SNB-19
MDA-MB-231 = tested on: MDA-MB-231
SK-MEL-28 = tested on: SK-MEL-28

Nc1nc(N)c(CCCCc2ccc([N+](=O)[O-])cc2)c(N)n1
GI50 (BT-549): > 100 µM (inactive)
GI50 (DMS-114): 20.8 µM (inactive)
GI50 (HOP-92): 99.5 µM (inactive)
GI50 (SR): 10.6 µM (inactive)
GI50 (SW-620): > 30.5 µM (inactive)
GI50 (U-251): 10.6 µM (inactive)
GI50 (OVCAR-5): 78.7 µM (inactive)
GI50 (KM-20L2): 36.1 µM (inactive)
GI50 (A549): 7.29 µM (inactive)
GI50 (SK-MEL-2): > 100 µM (inactive)
GI50 (MCF7): > 100 µM (inactive)
GI50 (MDA-N): > 100 µM (inactive)
GI50 (SK-OV-3): > 100 µM (inactive)
GI50 (HT-29): 7.67 µM (inactive)
GI50 (NCI-H460): 5.68 µM (inactive)
GI50 (DU-145): 76 µM (inactive)
GI50 (UACC-257): > 96.2 µM (inactive)
GI50 (DLD-1): 27 µM (inactive)
GI50 (CCRF-CEM): > 20.3 µM (inactive)
GI50 (HCC 2998): 38.1 µM (inactive)
GI50 (OVCAR-3): > 100 µM (inactive)
GI50 (Malme-3M): 41.9 µM (inactive)
GI50 (SNB-75): > 100 µM (inactive)
GI50 (HCT-15): 6.65 µM
GI50 (IGROV-1): 23.6 µM (inactive)
GI50 (SK-MEL-5): 16.7 µM (inactive)
GI50 (EKVX): > 100 µM (inactive)
GI50 (LXFL 529): 47.8 µM (inactive)
GI50 (OVCAR-8): 22.3 µM (inactive)
GI50 (COLO 205): > 94 µM (inactive)
GI50 (NCI/ADR-RES): > 100 µM (inactive)
GI50 (HOP-62): > 100 µM (inactive)
GI50 (PC-3): 7.71 µM (inactive)
GI50 (786-0): 8.67 µM (inactive)
GI50 (SF-539): > 85.3 µM (inactive)
GI50 (UACC-62): 8.67 µM (inactive)
GI50 (A498): > 100 µM (inactive)
GI50 (CAKI-1): > 96.6 µM (inactive)
GI50 (M19-MEL): > 100 µM (inactive)
GI50 (NCI-H226): > 100 µM (inactive)
GI50 (HL-60): 2.84 µM (inactive)
GI50 (SN12C): > 79.4 µM (inactive)
GI50 (MOLT-4): 8.22 µM (inactive)
GI50 (LOX IMVI): 6.62 µM (inactive)
GI50 (ACHN): 27.9 µM (inactive)
GI50 (SNB-78): > 100 µM (inactive)
GI50 (T47D): > 100 µM (inactive)
GI50 (K562): 3.86 µM (inactive)
GI50 (RXF 393): 24.9 µM (inactive)
GI50 (DMS-273): 11.6 µM (inactive)
GI50 (XF498): > 100 µM (inactive)
GI50 (OVCAR-4): > 100 µM (inactive)
GI50 (KM12): 36.3 µM (inactive)
GI50 (NCI-H23): 10.6 µM (inactive)
GI50 (HOP-18): > 100 µM (inactive)
GI50 (SF-295): 17.1 µM (inactive)
GI50 (TK-10): > 100 µM (inactive)
GI50 (SF-268): > 50.4 µM (inactive)
GI50 (UO-31): > 100 µM (inactive)
GI50 (M14): 31 µM (inactive)
GI50 (NCI-H522): > 83.6 µM (inactive)
GI50 (HCT-116): 3.93 µM (inactive)
GI50 (RPMI-8226): > 25.9 µM (inactive)
GI50 (Hs-578T): > 100 µM (inactive)
GI50 (SNB-19): > 100 µM (inactive)
GI50 (MDA-MB-231): > 100 µM (inactive)

CSc1nnc2n1-c1ccccc1SCC2
GI50 (DMS-114): > 100 µM (inactive)
GI50 (HOP-92): > 100 µM (inactive)
GI50 (SR): > 100 µM (inactive)
GI50 (SW-620): > 100 µM (inactive)
GI50 (U-251): > 100 µM (inactive)
GI50 (KM-20L2): > 100 µM (inactive)
GI50 (A549): > 100 µM (inactive)
GI50 (SK-MEL-2): > 100 µM (inactive)
GI50 (SK-OV-3): > 100 µM (inactive)
GI50 (HT-29): > 100 µM (inactive)
GI50 (NCI-H460): > 100 µM (inactive)
GI50 (UACC-257): > 100 µM (inactive)
GI50 (DLD-1): > 100 µM (inactive)
GI50 (CCRF-CEM): > 100 µM (inactive)
GI50 (HCC 2998): > 100 µM (inactive)
GI50 (OVCAR-3): > 100 µM (inactive)
GI50 (Malme-3M): > 100 µM (inactive)
GI50 (SNB-75): > 100 µM (inactive)
GI50 (HCT-15): > 100 µM
GI50 (IGROV-1): > 100 µM (inactive)
GI50 (EKVX): > 100 µM (inactive)
GI50 (LXFL 529): > 100 µM (inactive)
GI50 (OVCAR-8): > 100 µM (inactive)
GI50 (COLO 205): > 100 µM (inactive)
GI50 (HOP-62): > 100 µM (inactive)
GI50 (786-0): > 100 µM (inactive)
GI50 (SF-539): > 100 µM (inactive)
GI50 (UACC-62): > 100 µM (inactive)
GI50 (A498): > 100 µM (inactive)
GI50 (M19-MEL): > 100 µM (inactive)
GI50 (NCI-H226): > 100 µM (inactive)
GI50 (HL-60): > 100 µM (inactive)
GI50 (SN12C): > 100 µM (inactive)
GI50 (MOLT-4): > 100 µM (inactive)
GI50 (LOX IMVI): > 100 µM (inactive)
GI50 (ACHN): > 100 µM (inactive)
GI50 (SNB-78): > 100 µM (inactive)
GI50 (K562): > 100 µM (inactive)
GI50 (RXF 393): > 100 µM (inactive)
GI50 (DMS-273): > 100 µM (inactive)
GI50 (XF498): > 100 µM (inactive)
GI50 (OVCAR-4): > 100 µM (inactive)
GI50 (KM12): > 100 µM (inactive)
GI50 (NCI-H23): > 100 µM (inactive)
GI50 (HOP-18): > 100 µM (inactive)
GI50 (SF-295): > 100 µM (inactive)
GI50 (TK-10): > 100 µM (inactive)
GI50 (SF-268): > 100 µM (inactive)
GI50 (UO-31): > 100 µM (inactive)
GI50 (SK-MEL-28): > 100 µM (inactive)
GI50 (M14): > 100 µM (inactive)
GI50 (NCI-H522): > 100 µM (inactive)
GI50 (HCT-116): > 100 µM (inactive)
GI50 (RPMI-8226): > 100 µM (inactive)
GI50 (SNB-19): > 100 µM (inactive)
